# Results: ChEMBL document CHEMBL1201862, “PubChem BioAssay data set” (2004)
# The source made the active and inactive calls.
# Legend:
# [1] = target: Multidrug resistance protein CDR2 (Candida albicans (strain SC5314 / ATCC MYA-2876) (Yeast), UniProt P78595); experiment: CaCDR2 efflux pump inhibitors in yeast, dose response, S. cerevisiae AD1-8u, singleplex, Cherry Pick1 hits (AID 588604); type: functional
# [2] = target: Latent membrane protein 1 (Human herpesvirus 4 (strain B95-8), UniProt P03230); experiment: TES1-eGFP NF-kB reporter inhibition versus Tet-On dsRED, dose response, selectivity assay for LMP1 NF-kB inhibitor project, imaging, HEK293T, dual-color eGFP/dsRED, cherry-picks (AID 588398); type: functional, cell-based
# Latent membrane protein 1, sequence (P03230 whole entry): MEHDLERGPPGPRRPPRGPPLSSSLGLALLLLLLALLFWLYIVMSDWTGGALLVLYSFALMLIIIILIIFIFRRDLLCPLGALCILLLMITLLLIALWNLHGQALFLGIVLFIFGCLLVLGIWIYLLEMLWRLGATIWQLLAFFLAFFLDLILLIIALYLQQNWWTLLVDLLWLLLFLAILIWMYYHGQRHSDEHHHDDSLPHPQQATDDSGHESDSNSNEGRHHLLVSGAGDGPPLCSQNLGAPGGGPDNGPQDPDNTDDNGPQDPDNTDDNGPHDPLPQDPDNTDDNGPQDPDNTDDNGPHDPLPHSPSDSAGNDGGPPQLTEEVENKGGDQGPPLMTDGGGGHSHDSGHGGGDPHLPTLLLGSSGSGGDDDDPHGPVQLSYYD
# H9c2 = experiment: cells; type: functional, cell-based; conditions: Rattus norvegicus, H9c2, Myocardium;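 note: confirmatory concentration-response retest of ultra-high-throughput screening hits for modulation of myocardial damage; cell death induced by hydrogen peroxide oxidative stress; compound pretreatment for 60 min then peroxide exposure for 2 h; potency is for protecting the cells against peroxide damage rather than for killing them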
# [3] = target: T1, High affinity choline transporter 1 (Homo sapiens, UniProt Q9GZV3); experiment: CHT activators, dose response, cell-based, 10-point CRC, membrane potential dye (AID 602376); type: functional
# T1 sequence (Q9GZV3 whole entry): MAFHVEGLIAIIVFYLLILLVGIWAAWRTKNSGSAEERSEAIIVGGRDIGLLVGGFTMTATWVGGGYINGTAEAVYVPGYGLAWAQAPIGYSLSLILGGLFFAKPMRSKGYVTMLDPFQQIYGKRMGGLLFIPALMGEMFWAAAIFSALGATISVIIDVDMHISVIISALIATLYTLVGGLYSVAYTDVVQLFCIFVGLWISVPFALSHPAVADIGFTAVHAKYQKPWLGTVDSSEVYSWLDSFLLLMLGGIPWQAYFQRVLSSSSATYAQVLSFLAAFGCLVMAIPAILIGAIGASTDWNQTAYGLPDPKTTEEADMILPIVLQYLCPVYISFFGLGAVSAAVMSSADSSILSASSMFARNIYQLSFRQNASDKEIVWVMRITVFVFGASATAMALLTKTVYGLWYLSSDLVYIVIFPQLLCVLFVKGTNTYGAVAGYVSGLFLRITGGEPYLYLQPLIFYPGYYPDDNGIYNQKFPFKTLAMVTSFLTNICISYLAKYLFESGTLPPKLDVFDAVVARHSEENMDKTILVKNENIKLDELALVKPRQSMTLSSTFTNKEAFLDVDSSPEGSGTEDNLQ
# Ephrin type-A receptor 2 = Ephrin type-A receptor 2 (Homo sapiens, UniProt P29317); type: functional;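 note: EPHA2 tested as one member of a kinome-wide kinase panel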
# Ephrin type-A receptor 2, sequence (P29317 whole entry): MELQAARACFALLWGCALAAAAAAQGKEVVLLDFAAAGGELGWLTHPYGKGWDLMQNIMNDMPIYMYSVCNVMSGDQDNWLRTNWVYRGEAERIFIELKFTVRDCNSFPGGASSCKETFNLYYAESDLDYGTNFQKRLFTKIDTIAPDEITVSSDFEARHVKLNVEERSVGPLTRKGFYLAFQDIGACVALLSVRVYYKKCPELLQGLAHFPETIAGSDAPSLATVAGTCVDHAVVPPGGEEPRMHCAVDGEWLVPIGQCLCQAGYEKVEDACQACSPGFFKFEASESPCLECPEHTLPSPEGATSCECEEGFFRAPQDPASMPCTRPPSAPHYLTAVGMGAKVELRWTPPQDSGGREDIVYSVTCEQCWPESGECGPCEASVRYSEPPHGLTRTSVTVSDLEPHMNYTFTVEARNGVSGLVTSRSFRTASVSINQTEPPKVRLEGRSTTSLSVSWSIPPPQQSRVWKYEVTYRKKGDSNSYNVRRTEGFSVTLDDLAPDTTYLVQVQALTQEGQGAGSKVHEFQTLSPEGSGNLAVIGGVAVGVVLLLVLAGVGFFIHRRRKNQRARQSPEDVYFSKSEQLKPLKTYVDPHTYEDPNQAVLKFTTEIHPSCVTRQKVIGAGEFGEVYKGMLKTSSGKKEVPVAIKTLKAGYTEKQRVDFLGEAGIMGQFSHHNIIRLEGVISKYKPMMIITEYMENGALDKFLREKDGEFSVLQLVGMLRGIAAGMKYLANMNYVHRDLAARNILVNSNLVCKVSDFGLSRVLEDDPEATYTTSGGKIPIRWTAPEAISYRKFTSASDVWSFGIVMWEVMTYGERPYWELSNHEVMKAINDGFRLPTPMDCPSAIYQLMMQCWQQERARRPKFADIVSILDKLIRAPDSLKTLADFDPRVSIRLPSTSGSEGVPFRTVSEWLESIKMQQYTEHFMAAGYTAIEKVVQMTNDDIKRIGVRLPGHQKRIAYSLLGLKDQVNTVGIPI
# [4] = target: Glycogen synthase kinase-3 alpha (Homo sapiens, UniProt P49840); type: functional;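 note: GSK3A result taken from a broad kinome-wide kinase panel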
# Glycogen synthase kinase-3 alpha, sequence (P49840 whole entry): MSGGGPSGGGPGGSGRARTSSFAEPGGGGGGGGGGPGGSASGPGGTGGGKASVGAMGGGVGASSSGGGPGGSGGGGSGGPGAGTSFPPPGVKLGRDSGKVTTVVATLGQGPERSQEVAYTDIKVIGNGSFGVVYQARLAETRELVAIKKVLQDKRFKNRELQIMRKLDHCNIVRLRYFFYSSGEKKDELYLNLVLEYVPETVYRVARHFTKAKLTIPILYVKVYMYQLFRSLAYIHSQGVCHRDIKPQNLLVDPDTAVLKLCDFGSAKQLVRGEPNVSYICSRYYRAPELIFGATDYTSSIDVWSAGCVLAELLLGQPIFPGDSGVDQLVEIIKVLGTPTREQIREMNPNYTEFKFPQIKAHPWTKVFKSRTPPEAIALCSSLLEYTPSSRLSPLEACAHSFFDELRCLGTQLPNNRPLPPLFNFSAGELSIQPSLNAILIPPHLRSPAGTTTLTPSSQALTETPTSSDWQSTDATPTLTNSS
# [5] = inhibitors of cytokine-induced nitrite release, dose response, cell-based, Griess absorbance, INS-1E, dry powder, set 3 (AID 488870); type: functional; conditions: Rattus norvegicus
# INS1 [6] = experiment: inhibitors of cytokine-induced nitrite release, dose response, cell-based, Griess absorbance, INS-1E, dry powder, set 2 (AID 488868); type: functional; conditions: Rattus norvegicus
# INS1 [7] = experiment: INS-1E beta-cell viability without cytokines, dose response, cytotoxicity control for beta-cell cytokine protection project, CellTiter-Glo luminescence, dry powder (AID 488864); type: functional, cell-based; conditions: Rattus norvegicus
# [8] = NIH-3T3 fibroblast cytotoxicity, dose response, cytotoxicity control, cell-based, fluorescence, Alamar Blue, secondary assay (AID 2327); type: functional;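 note: NIH-3T3 mouse fibroblasts cultured with fluconazole at 8 µg/mL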
# [9] = target: Protein disulfide-isomerase (Homo sapiens, UniProt P07237); experiment: PDI inhibitors, insulin aggregation turbidity, dose response, biochemical, absorbance, cherry-picked samples (AID 602350); type: functional
# Protein disulfide-isomerase, sequence (P07237 whole entry, the tested form may be a part): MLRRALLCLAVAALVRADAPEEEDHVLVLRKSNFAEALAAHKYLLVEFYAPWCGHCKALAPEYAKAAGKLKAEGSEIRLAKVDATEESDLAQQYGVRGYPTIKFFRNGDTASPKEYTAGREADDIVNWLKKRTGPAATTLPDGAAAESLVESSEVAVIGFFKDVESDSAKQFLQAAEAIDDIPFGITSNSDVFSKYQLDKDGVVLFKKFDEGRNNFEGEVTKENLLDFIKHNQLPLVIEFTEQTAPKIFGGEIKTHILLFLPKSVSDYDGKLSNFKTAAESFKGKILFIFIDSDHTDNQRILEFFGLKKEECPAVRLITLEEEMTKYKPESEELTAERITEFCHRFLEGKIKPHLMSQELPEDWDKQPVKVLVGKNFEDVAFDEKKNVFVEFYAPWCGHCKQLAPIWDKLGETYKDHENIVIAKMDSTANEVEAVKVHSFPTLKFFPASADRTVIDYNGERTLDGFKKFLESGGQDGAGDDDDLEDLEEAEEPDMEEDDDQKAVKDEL
# [10] = target: T2, Hepatocyte nuclear factor 4-alpha (Homo sapiens, UniProt P41235); type: functional, cell-based;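 note: biochemical luminescence-based dose-response counterscreen measuring inhibition of HNF4 dimerization, run alongside a screen for blockers of ABHD5–perilipin-5 interaction; split luciferase complementation of HNF4 fusion proteins in cell lysate measuring dimerization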
# T2 sequence (P41235 whole entry): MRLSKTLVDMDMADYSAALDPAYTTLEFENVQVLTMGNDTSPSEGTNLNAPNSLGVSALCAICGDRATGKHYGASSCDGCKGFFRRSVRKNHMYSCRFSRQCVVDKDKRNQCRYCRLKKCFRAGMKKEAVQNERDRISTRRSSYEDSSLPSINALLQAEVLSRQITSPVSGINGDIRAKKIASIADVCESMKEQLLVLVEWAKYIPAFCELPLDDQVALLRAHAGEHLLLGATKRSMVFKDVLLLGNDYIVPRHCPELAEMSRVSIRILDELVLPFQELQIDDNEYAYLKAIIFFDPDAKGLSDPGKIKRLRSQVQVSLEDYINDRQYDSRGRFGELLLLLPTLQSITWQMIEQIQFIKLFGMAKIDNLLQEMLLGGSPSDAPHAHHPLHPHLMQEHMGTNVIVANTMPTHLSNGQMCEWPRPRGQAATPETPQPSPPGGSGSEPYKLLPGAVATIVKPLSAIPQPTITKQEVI
# [11] = C. albicans growth with fluconazole, confirmation, fluorescence, retest (AID 2467); type: functional, cell-based
# Caspase-3 [12] = target: T3, Caspase-3 (Homo sapiens, UniProt P42574); experiment: SAR Analysis of small molecule inhibitors of Sentrin-specific proteases (SENPs) using a Caspase-3 Selectivity assay. [Related pubchem assays (depositor defined):AID2540, AID2599, AID434973, AID489001]; type: functional
# T3 sequence (P42574 whole entry): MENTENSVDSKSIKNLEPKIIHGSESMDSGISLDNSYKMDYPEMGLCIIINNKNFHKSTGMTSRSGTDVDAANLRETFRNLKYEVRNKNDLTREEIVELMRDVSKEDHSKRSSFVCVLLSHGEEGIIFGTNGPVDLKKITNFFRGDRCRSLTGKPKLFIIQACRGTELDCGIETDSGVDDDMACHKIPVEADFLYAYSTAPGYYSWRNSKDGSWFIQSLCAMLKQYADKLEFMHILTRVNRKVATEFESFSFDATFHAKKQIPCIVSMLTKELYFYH
# [13] = target: T4, Sentrin-specific protease 7 (Homo sapiens, UniProt Q9BQF6); experiment: SENP7 protease inhibitors, SAR follow-up, biochemical, luminescence, set 2 (AID 588600); type: functional
# T4 sequence (Q9BQF6 whole entry): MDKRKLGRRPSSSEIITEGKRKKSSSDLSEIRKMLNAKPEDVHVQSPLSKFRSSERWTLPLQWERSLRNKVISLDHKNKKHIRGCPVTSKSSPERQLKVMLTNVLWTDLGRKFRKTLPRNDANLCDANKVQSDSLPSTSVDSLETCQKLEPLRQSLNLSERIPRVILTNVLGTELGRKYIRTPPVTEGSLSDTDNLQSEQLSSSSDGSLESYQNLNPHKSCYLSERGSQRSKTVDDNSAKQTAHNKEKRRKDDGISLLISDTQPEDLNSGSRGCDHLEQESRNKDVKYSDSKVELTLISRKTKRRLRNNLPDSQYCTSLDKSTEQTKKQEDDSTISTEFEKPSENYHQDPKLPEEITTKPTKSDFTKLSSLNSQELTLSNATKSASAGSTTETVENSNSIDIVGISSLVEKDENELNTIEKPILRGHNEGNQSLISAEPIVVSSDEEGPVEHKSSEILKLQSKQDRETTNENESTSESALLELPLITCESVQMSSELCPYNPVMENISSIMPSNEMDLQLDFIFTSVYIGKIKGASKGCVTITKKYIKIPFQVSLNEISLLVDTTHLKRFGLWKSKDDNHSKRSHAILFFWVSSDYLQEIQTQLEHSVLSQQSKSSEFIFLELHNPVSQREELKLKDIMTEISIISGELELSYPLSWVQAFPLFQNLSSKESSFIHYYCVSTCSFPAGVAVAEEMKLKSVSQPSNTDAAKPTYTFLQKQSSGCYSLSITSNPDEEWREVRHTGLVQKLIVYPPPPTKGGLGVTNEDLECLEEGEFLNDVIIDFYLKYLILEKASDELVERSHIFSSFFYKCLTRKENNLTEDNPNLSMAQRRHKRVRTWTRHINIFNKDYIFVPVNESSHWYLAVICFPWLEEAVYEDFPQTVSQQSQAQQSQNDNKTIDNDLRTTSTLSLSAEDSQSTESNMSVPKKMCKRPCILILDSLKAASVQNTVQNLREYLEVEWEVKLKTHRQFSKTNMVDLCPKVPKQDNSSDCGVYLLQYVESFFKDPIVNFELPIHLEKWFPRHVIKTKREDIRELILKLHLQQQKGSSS
# [14] = target: T4, Sentrin-specific protease 7; experiment: SENP7 protease inhibitors, SAR follow-up, biochemical, luminescence (AID 504497); type: functional
# Caspase-3 [15] = target: T3, Caspase-3; experiment: caspase-3 inhibitors as off-family protease, SAR follow-up, selectivity assay for SENP protease inhibitor project, biochemical, luminescence, set 2 (AID 588599); type: functional
# [16] = target: T5, Sentrin-specific protease 6 (Homo sapiens, UniProt Q9GZR1); experiment: SAR Analysis of small molecule inhibitors of Sentrin-specific protease 6 (SENP6) using a Luminescent assay. [Related pubchem assays (depositor defined):AID2582, AID2599]; type: functional
# T5 sequence (Q9GZR1 whole entry): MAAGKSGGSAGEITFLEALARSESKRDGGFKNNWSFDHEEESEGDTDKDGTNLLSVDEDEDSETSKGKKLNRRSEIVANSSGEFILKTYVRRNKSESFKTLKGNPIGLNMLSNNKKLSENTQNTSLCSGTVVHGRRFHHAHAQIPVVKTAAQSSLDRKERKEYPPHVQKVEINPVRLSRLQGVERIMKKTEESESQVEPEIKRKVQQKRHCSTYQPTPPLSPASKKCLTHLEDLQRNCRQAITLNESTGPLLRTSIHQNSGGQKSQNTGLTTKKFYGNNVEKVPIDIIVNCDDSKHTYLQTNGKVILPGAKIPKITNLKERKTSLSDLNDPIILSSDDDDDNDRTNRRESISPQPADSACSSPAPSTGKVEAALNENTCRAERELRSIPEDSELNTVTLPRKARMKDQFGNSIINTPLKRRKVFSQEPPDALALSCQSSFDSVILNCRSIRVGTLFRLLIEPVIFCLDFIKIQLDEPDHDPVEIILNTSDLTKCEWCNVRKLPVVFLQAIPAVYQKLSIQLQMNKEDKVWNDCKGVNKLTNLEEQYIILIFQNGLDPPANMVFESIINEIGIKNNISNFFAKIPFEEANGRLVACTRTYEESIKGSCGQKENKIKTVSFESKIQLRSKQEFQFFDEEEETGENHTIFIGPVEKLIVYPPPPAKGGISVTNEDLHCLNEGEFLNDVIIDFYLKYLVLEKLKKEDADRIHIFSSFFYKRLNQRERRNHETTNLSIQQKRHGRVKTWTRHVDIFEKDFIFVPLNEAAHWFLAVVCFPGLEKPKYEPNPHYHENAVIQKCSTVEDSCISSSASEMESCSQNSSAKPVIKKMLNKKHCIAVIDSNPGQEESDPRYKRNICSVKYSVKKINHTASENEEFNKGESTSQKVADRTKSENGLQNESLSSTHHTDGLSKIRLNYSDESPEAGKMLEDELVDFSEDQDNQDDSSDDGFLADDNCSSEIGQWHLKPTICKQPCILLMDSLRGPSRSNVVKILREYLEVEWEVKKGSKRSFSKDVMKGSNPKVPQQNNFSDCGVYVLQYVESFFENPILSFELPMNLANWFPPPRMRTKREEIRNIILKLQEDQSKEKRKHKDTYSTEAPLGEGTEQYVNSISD
# [17] = target: T6, Sentrin-specific protease 8 (Homo sapiens, UniProt Q96LD8); experiment: SENP8 protease inhibitors, SAR follow-up, biochemical, luminescence, set 2 (AID 588601); type: functional
# T6 sequence (Q96LD8 whole entry): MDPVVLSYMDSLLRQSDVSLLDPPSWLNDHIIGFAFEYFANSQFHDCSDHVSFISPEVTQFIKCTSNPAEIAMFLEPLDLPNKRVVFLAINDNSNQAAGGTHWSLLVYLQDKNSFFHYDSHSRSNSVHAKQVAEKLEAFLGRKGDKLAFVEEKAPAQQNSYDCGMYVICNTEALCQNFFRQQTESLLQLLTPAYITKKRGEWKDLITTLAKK
# [18] = target: T6, Sentrin-specific protease 8; experiment: SENP8 protease inhibitors, SAR follow-up, biochemical, luminescence (AID 504501); type: functional
# [19] = target: T5, Sentrin-specific protease 6; experiment: SENP6 protease inhibitors, SAR follow-up, biochemical, luminescence, set 2 (AID 588598); type: functional
# CAAX prenyl protease 2 [20] = target: T7, CAAX prenyl protease 2 (Saccharomyces cerevisiae S288c, UniProt Q03530); type: biochemical
# T7 sequence (Q03530 whole entry): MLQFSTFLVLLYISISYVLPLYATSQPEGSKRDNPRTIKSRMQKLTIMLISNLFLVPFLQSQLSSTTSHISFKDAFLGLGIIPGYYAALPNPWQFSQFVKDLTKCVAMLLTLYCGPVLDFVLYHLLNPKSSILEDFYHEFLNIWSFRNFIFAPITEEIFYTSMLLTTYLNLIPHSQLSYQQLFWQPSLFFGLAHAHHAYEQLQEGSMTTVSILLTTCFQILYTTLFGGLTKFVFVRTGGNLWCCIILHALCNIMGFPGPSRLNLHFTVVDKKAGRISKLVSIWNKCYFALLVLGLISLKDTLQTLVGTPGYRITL
# [21] = mammalian cell cytotoxicity, dose response, cytotoxicity control, plate reader, cherry-pick samples (AID 504397); type: functional, cell-based
# CAAX prenyl protease 2 [22] = target: T7, CAAX prenyl protease 2; experiment: yeast Rce1 CaaX protease inhibitors, dose response, biochemical, plate reader, dry powder retest (AID 588851)
# Multidrug resistance protein CDR2, sequence (P78595 whole entry): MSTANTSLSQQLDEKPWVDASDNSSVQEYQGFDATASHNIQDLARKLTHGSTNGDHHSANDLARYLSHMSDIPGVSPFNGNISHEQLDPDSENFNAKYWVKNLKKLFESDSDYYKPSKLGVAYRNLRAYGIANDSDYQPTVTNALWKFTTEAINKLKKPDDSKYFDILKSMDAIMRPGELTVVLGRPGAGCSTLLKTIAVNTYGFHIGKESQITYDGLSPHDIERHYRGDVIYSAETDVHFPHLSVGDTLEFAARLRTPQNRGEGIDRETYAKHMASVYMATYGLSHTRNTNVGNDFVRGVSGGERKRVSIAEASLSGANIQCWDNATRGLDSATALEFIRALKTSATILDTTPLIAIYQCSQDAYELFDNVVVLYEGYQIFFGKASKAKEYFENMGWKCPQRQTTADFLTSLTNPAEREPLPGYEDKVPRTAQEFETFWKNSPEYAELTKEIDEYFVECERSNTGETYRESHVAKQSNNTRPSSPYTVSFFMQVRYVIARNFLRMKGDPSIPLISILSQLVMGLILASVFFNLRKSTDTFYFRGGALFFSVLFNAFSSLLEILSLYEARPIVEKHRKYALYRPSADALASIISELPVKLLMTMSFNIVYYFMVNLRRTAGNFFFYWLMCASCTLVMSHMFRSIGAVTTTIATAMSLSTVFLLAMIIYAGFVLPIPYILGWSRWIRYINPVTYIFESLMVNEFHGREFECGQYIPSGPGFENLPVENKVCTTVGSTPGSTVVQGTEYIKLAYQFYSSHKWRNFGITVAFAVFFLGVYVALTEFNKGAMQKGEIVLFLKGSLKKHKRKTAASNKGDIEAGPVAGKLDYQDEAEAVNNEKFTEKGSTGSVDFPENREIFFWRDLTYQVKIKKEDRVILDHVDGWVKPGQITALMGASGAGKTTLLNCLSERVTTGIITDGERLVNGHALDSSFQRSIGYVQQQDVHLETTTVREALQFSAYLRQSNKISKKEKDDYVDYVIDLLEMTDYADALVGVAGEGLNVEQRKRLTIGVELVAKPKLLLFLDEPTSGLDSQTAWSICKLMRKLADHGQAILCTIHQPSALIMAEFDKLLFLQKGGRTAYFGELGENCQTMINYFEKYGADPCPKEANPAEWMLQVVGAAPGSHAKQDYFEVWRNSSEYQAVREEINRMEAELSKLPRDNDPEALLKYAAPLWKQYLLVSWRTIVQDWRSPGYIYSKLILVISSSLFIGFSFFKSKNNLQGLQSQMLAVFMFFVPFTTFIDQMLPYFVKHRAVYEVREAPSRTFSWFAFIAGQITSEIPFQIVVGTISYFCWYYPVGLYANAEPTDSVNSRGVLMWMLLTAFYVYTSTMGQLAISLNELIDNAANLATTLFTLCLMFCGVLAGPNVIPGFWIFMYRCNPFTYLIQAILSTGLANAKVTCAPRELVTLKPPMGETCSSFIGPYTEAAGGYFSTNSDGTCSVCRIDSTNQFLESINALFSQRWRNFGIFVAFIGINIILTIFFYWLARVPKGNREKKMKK
compound,measurement,setting,value
O=C(Cn1c(COc2ccccc2)nc2ccccc21)Nc1cc(Cl)c(Cl)cc1Cl,EC50,[1],15.7 µM (active)
O=C(Nc1ccccn1)NC1CCCCC1,AC50,[2],66.5 µM (active)
COC(=O)c1ccc(C(NC(=O)OCc2ccccc2)/C(C)=C/[C@@H](C)C(=O)NCc2ccc(OC)c(OC)c2)cc1 (some centres undefined),IC50,H9c2,10.6 µM (active)
same,EC50,[3],12.3 µM (active)
Cc1ccc(NC(=O)c2cnn3c(-c4ccccc4)ccnc23)cc1C,Ki,Ephrin type-A receptor 2,2 µM (active)
same,Ki,[4],7.94 µM (active)
C[C@@H]1CN([C@@H](C)CO)C(=O)c2cccc(NC(=O)Nc3cccc4ccccc34)c2O[C@H]1CN(C)S(=O)(=O)c1ccc(OC(F)(F)F)cc1,AC50,[5],20.3 µM (active)
same,AC50,INS1 [6],16.5 µM (active)
same,AC50,INS1 [7],18.5 µM (active)
O=C(/C=C/c1ccc(NC(=O)c2ccccc2-c2ccccc2C(=O)O)cc1)c1ccccc1,EC50,[8],> 150 µM (inactive)
same,AC50,[9],11.4 µM (active)
same,IC50,[10],8.66 µM (active)
same,EC50,[11],> 38 µM (not active)
COc1ccc(/C=C/c2noc(-c3ccccc3O)n2)cc1,IC50,Caspase-3 [12],1.4 µM (active)
same,IC50,[13],1.35 µM (active)
same,IC50,[14],1.1 µM (active)
same,IC50,Caspase-3 [15],1.17 µM (active)
same,IC50,[16],1.4 µM (active)
same,IC50,[17],1.19 µM (active)
same,IC50,[18],1.3 µM (active)
same,IC50,[19],1.26 µM (active)
Cc1ccc(SCc2c(C(=O)N/N=C/c3ccccc3)nnn2-c2nonc2N)cc1,AC50,CAAX prenyl protease 2 [20],0.141 µM (active)
same,AC50,[21],73 µM (active)
same,AC50,CAAX prenyl protease 2 [22],3.7 µM (active)
